Consider two compounds from ChEMBL document CHEMBL4396887, “Five-Membered N-Heterocyclic Scaffolds as Novel Amino Bioisosteres at γ-Aminobutyric Acid (GABA) Type A Receptors and GABA Transporters” (J Med Chem, 2019).

Holding throughout (format): cell-based
Assay [1] concerns the target T1, Sodium- and chloride-dependent GABA transporter 2 (Homo sapiens, UniProt Q9NSD5).
T1 sequence (Q9NSD5 whole entry): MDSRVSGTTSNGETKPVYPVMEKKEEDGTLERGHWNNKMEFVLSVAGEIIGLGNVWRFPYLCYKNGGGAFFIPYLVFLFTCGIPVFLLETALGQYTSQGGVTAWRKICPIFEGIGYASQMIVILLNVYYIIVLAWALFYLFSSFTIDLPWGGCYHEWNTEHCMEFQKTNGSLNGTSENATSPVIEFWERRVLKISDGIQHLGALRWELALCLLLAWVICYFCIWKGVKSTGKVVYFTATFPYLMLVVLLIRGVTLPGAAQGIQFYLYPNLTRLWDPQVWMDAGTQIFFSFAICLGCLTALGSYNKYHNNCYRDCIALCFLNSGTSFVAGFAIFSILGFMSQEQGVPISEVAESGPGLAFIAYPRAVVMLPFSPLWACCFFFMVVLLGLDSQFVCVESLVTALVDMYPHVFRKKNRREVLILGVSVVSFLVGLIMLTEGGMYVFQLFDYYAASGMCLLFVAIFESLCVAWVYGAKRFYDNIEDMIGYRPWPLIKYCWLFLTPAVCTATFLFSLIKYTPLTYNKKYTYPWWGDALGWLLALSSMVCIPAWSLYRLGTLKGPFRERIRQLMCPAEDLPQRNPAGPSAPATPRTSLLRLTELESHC
Kind of assay: Inhibition of human GAT2 expressed in Flp-In CHO cells assessed as reduction in [3H]GABA uptake incubated for 3 mins by liquid scintillation counting method.

Assay [2] addresses GABA-A receptor; alpha-1/beta-2/gamma-2 (Homo sapiens) (UniProt P14867+P47870+P18507). The assay can be described thus: Agonist activity at recombinant human GABA-A alpha1beta2gamma2S receptor transiently expressed in human tsA201 cells assessed as GABA-induced maximum response incubated for 30 mins and measured up to 90 secs by FMP dye based FLIPR membrane potential blue assay relative to GABA.

Assay [3] has as its target T2, Sodium- and chloride-dependent GABA transporter 3 (Homo sapiens, UniProt P48066).
T2 sequence (P48066 whole entry): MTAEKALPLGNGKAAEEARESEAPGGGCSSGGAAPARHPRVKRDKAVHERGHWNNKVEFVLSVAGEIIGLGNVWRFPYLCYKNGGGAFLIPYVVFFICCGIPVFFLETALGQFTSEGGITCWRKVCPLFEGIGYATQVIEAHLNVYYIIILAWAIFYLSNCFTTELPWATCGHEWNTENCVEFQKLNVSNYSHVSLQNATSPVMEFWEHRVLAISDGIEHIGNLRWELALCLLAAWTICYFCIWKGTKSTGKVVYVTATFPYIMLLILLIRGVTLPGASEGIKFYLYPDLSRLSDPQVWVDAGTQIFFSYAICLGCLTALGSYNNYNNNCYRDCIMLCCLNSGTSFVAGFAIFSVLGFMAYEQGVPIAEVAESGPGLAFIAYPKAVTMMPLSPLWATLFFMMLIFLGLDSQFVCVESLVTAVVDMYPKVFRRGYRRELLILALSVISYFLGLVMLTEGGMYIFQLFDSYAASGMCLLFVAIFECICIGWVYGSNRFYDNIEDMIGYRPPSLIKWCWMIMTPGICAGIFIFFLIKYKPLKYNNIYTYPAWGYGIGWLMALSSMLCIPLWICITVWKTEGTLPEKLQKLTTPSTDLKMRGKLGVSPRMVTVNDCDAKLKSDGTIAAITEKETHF
Kind of assay: Inhibition of human GAT3 expressed in Flp-In CHO cells assessed as reduction in [3H]GABA uptake incubated for 3 mins by liquid scintillation counting method. To be noted: read-out: IC50.

Assay [4] addresses Sodium- and chloride-dependent GABA transporter 1 (Homo sapiens, UniProt P30531). Kind of assay: Inhibition of human GAT1 expressed in Flp-In CHO cells assessed as reduction in [3H]GABA uptake at 100 uM incubated for 3 mins by liquid scintillation counting method relative to control.
For a further assay, the species on record is Homo sapiens. Kind of assay: Agonist activity at recombinant human GABA-A alpha3beta2gamma2S receptor transiently expressed in human tsA201 cells assessed as GABA-induced maximum response incubated for 30 mins and measured up to 90 secs by FMP dye based FLIPR membrane potential blue assay relative to GABA.
For assay [5], the target named is T3, Sodium- and chloride-dependent betaine transporter (Homo sapiens) (UniProt P48065).
T3 sequence (whole entry): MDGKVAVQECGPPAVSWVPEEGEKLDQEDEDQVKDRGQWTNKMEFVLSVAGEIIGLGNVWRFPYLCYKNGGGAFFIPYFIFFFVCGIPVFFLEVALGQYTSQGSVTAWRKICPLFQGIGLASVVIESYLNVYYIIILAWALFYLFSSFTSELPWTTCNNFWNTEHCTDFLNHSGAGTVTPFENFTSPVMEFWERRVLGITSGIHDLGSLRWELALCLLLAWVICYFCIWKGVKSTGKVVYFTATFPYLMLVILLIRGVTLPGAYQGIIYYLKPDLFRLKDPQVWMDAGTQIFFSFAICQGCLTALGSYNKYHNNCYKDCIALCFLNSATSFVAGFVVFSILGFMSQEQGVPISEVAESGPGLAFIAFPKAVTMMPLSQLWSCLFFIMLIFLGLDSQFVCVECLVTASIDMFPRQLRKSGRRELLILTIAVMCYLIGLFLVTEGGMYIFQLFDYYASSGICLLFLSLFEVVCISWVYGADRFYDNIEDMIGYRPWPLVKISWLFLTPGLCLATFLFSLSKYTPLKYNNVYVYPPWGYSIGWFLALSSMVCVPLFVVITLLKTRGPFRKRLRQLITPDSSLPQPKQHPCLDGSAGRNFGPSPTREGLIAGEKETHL
The assay can be described thus: Inhibition of human BGT1 expressed in Flp-In CHO cells assessed as reduction in [3H]GABA uptake at 100 uM incubated for 3 mins by liquid scintillation counting method relative to control.

The target in assay [6] is T4, Sodium- and chloride-dependent GABA transporter 2 (Homo sapiens) (UniProt Q9NSD5).
T4 sequence (whole entry): T1 sequence (Q9NSD5 whole entry)
Kind of assay: Inhibition of human GAT2 expressed in Flp-In CHO cells assessed as reduction in [3H]GABA uptake at 100 uM incubated for 3 mins by liquid scintillation counting method relative to control.

The target in assay [7] is Gamma-aminobutyric acid receptor subunit alpha-4/beta-2/gamma-2 (Homo sapiens, UniProt P47870+P18507+P48169). Kind of assay: Agonist activity at recombinant human GABA-A alpha4beta2gamma2S receptor transiently expressed in human tsA201 cells assessed as GABA-induced maximum response incubated for 30 mins and measured up to 90 secs by FMP dye based FLIPR membrane potential blue assay relative to GABA.

For assay [8], the target named is Gamma-aminobutyric acid receptor subunit rho-1 (Homo sapiens, UniProt P24046). Kind of assay: Agonist activity at recombinant human GABA-A rho-1 receptor transiently expressed in human tsA201 cells assessed as GABA-induced maximum response incubated for 30 mins and measured up to 90 secs by FMP dye based FLIPR membrane potential blue assay relative to GABA.
For assay [9], the target named is T5, Sodium- and chloride-dependent GABA transporter 3 (Homo sapiens) (UniProt P48066).
T5 sequence (whole entry): T2 sequence (P48066 whole entry)
The assay can be described thus: Inhibition of human GAT3 expressed in Flp-In CHO cells assessed as reduction in [3H]GABA uptake at 100 uM incubated for 3 mins by liquid scintillation counting method relative to control.

Assay [10] deals with Gamma-aminobutyric acid receptor subunit alpha-5/beta-2/gamma-2 (Homo sapiens) (UniProt P47870+P18507+P31644). The assay can be described thus: Agonist activity at recombinant human GABA-A alpha5beta2gamma2S receptor transiently expressed in human tsA201 cells assessed as GABA-induced maximum response incubated for 30 mins and measured up to 90 secs by FMP dye based FLIPR membrane potential blue assay relative to GABA.

Sodium- and chloride-dependent GABA transporter 1, sequence (P30531 whole entry, looked up): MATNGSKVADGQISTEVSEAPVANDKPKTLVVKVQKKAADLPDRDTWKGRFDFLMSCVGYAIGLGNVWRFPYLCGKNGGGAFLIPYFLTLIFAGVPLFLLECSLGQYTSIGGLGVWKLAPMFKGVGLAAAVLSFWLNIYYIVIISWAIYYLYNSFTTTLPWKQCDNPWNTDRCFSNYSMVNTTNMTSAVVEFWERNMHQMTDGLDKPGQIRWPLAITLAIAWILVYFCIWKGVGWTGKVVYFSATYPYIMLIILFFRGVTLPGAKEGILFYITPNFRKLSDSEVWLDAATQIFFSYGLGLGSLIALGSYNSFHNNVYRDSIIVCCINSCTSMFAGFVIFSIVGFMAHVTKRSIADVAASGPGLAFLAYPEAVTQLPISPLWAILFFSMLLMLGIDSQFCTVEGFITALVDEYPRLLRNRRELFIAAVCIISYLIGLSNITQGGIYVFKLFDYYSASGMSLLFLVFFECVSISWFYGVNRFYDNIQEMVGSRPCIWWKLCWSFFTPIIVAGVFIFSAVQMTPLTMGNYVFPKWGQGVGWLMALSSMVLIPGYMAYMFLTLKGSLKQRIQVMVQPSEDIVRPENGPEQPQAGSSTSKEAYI
Gamma-aminobutyric acid receptor subunit rho-1, sequence (P24046 whole entry): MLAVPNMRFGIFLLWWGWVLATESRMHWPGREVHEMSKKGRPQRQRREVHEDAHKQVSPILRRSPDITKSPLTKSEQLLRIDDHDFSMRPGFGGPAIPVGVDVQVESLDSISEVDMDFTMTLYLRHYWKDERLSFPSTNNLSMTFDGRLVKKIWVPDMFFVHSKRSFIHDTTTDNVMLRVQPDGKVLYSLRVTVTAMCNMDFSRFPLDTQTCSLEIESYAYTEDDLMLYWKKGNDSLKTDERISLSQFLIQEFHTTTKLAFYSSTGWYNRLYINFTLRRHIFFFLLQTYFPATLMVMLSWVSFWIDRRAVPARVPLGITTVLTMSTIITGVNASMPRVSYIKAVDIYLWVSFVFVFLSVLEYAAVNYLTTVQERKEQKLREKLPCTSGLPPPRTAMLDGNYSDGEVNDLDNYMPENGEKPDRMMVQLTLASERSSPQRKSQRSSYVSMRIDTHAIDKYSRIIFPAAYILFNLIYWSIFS

Consider `NCCCC(=O)O` [GAMMA-AMINOBUTYRIC ACID], for which the IC50 (as a rule, the concentration needed to halve the response being measured) was found to be 26 µM in assay [1] and 11 µM in assay [3]. For the same compound, the Rmax in assay [2] was 100%.

With `CC(C(=O)O)C1CSC(N)=N1` (stereo in doubt; l-10a), the inhibition in [4], in assay [5], in assay [6] and in assay [9] was more than 30% in each case. Also, the Rmax stood at 83% in the assay listed under Homo sapiens; 32% in [7]; 69% in [2]; 63% in assay [8]; 97% in assay [10].
